Experimental data from the supplement of paper PMC10307832.

What was measured:
Assay in all cases: relative viability (nuclei count vs DMSO), 5 days (fraction); higher = more cells survive
[1] = system: Calu-6
How it was run: (§1)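 Medians of duplicate plates are given as relative viability. That measure is the nuclei count in treated wells divided by the count in vehicle wells. Counts were taken on 4× images of lung cancer cell lines in 1536-well plates, 5 days after pin-tool dosing the day after seeding with one drug alone or a fixed anchor-drug dose plus five library-drug doses (not always all listed) in √10 steps.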

[2] = system: SW 1573
How it was run: as §1

[3] = system: ChaGo-K-1
How it was run: as §1

[4] = system: NCI-H1651
How it was run: as §1

[5] = system: A549
How it was run: as §1

[6] = system: SK-MES-1
How it was run: as §1

[7] = system: NCI-H1703
How it was run: as §1

[8] = system: COR-L23
How it was run: as §1

[9] = system: NCI-H1299
How it was run: as §1

[10] = system: IA-LM
How it was run: as §1

[11] = system: NCI-H1437
How it was run: as §1

[12] = system: EBC-1
How it was run: as §1

COc1cc2nccc(Oc3ccc(NC(=O)Nc4cc(C)on4)c(Cl)c3)c2cc1OC [Tivozanib] + CC1(C)CCC(c2ccc(Cl)cc2)=C(CN2CCN(c3ccc(C(=O)NS(=O)(=O)c4ccc(N[C@H](CCN5CCOCC5)CSc5ccccc5)c(S(=O)(=O)C(F)(F)F)c4)cc3)CC2)C1 [Navitoclax] (partner 0.5 µM)
relative viability ([1]; first compound 0.005 µM): 0.739 | relative viability ([1]; first compound 0.01581 µM): 0.896 | relative viability ([1]; first compound 0.05 µM): 0.798 | relative viability ([1]; first compound 0.1581 µM): 0.874 | relative viability ([1]; first compound 0.5 µM): 0.74 | relative viability ([2]; first compound 0.005 µM): 0.92 | relative viability ([2]; first compound 0.01581 µM): 0.911 | relative viability ([2]; first compound 0.05 µM): 0.949 | relative viability ([2]; first compound 0.1581 µM): 0.777 | relative viability ([2]; first compound 0.5 µM): 0.983 | relative viability ([3]; first compound 0.005 µM): 0.846 | relative viability ([3]; first compound 0.01581 µM): 1.03 | relative viability ([3]; first compound 0.05 µM): 0.802 | relative viability ([3]; first compound 0.1581 µM): 0.645 | relative viability ([3]; first compound 0.5 µM): 0.799 | relative viability ([4]; first compound 0.005 µM): 0.979 | relative viability ([4]; first compound 0.01581 µM): 0.934 | relative viability ([4]; first compound 0.05 µM): 1.09 | relative viability ([4]; first compound 0.1581 µM): 0.983 | relative viability ([4]; first compound 0.5 µM): 1.15 | relative viability ([5]; first compound 0.005 µM): 1.22 | relative viability ([5]; first compound 0.01581 µM): 1.32 | relative viability ([5]; first compound 0.05 µM): 1.14 | relative viability ([5]; first compound 0.1581 µM): 1.23 | relative viability ([5]; first compound 0.5 µM): 1.19 | relative viability ([6]; first compound 0.005 µM): 1.25 | relative viability ([6]; first compound 0.01581 µM): 1.16 | relative viability ([6]; first compound 0.05 µM): 1.4 | relative viability ([6]; first compound 0.1581 µM): 1.17 | relative viability ([6]; first compound 0.5 µM): 1.18 | relative viability ([7]; first compound 0.005 µM): 0.369 | relative viability ([7]; first compound 0.01581 µM): 0.244 | relative viability ([7]; first compound 0.05 µM): 0.219 | relative viability ([7]; first compound 0.1581 µM): 0.251 | relative viability ([7]; first compound 0.5 µM): 0.249 | relative viability ([8]; first compound 0.005 µM): 0.955 | relative viability ([8]; first compound 0.01581 µM): 0.998 | relative viability ([8]; first compound 0.05 µM): 1.04 | relative viability ([8]; first compound 0.1581 µM): 0.935 | relative viability ([8]; first compound 0.5 µM): 0.817 | relative viability ([9]; first compound 0.005 µM): 1.03 | relative viability ([9]; first compound 0.01581 µM): 1.07 | relative viability ([9]; first compound 0.05 µM): 1.05 | relative viability ([9]; first compound 0.1581 µM): 1.05 | relative viability ([9]; first compound 0.5 µM): 0.981 | relative viability ([10]; first compound 0.005 µM): 0.728 | relative viability ([10]; first compound 0.01581 µM): 0.899 | relative viability ([10]; first compound 0.05 µM): 0.737 | relative viability ([10]; first compound 0.1581 µM): 0.574 | relative viability ([10]; first compound 0.5 µM): 0.582 | relative viability ([11]; first compound 0.005 µM): 1.06 | relative viability ([11]; first compound 0.01581 µM): 1.12 | relative viability ([11]; first compound 0.05 µM): 1.07 | relative viability ([11]; first compound 0.1581 µM): 1.02 | relative viability ([11]; first compound 0.5 µM): 1.02 | relative viability ([12]; first compound 0.005 µM): 0.359 | relative viability ([12]; first compound 0.01581 µM): 0.437 | relative viability ([12]; first compound 0.05 µM): 0.528 | relative viability ([12]; first compound 0.1581 µM): 0.436 | relative viability ([12]; first compound 0.5 µM): 0.485
